Experimental data from patent US20250388565A1, “ESTROGEN RECEPTOR ALPHA DEGRADERS AND METHODS OF USE THEREOF” (Relay Therapeutics, Inc., priority 2022, published 2025).

Molecular target: T1, ERα protein (HiBiT-tagged) in ESR1_HiBiT KI MCF7 cells (Homo sapiens, UniProt P03372)
T1 sequence (P03372 1-595): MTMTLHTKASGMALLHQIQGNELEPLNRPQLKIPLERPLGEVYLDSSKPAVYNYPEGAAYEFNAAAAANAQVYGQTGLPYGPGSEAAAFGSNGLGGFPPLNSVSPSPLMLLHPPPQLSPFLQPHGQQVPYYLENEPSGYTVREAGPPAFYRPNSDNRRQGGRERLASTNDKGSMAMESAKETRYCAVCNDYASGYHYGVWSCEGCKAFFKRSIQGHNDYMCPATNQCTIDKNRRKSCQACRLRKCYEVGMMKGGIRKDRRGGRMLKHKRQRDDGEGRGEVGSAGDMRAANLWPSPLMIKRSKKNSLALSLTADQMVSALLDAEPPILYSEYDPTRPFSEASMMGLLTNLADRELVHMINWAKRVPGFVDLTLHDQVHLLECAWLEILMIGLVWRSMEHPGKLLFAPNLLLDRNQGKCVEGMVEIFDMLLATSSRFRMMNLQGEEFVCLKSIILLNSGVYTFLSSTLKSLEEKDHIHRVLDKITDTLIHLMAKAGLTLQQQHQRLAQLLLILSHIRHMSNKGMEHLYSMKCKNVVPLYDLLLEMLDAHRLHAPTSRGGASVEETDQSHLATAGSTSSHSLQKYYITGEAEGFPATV
Assay: Nano Glo HiBiT Lytic Degradation Assay
Assay type: cell-based
Conditions: 6 hours with compound, 14-point dose response 1:3, bell-shape curve fit, half-maximal effect of first Hill model, read-out: MCF7 ESR1 HiBiT - (DC50)
Procedure, shortened: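 Lytic Nano-Glo HiBiT luminescence quantified ERα remaining after a 6 h, 37° C compound exposure of MCF7 cells carrying endogenous HiBiT-tagged ESR1. Dosing used 14 threefold dilutions from a 10 mM DMSO stock (0.1% DMSO final), run in duplicate. Signals were corrected for cell-free background and expressed relative to DMSO, and DC50 came from a bell-shaped curve fit (first Hill model half-maximum).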

Row | DC50 [nM] | SMILES
1 | 22 | O=C1CCC(N2Cc3cc(C4=CCN(CC5CCN(c6ccc([C@@H]7c8ccc(O)cc8CC[C@@H]7c7ccccc7)cc6)CC5)CC4)ccc3C2=O)C(=O)N1 (stereo partly shown) [II-104]
2 | ≥ 10000 | O=C1CCC(N2Cc3cc(C4CCN(CC5CCN(c6ccc([C@@H]7c8ccc(O)cc8CC[C@@H]7c7ccccc7)cc6)CC5)CC4)ccc3C2=O)C(=O)N1 (stereo partly shown) [II-105]
3 | 1.05 | O=C1CCC(N2Cc3cc(N4CCN(CC5CCN(c6ccc([C@@H]7c8ccc(O)cc8CC[C@@H]7c7ccc(F)cc7)cc6)CC5)CC4)ccc3C2=O)C(=O)N1 (stereo partly shown) [II-109]
4 | 0.88 | O=C1CC[C@@H](N2Cc3cc(N4CCN(CC5CCN(c6ccc([C@@H]7c8ccc(O)cc8CC[C@@H]7c7ccc(F)cc7)cc6)CC5)CC4)ccc3C2=O)C(=O)N1 [II-110]
